This is an account of results in ChEMBL document CHEMBL1201862, “PubChem BioAssay data set” (2004).

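Dose response: 5 concentrations. Exposure: 48 h. Format: 96-well plates. Endpoint: linear interpolation; highest concentration if not reached. GI50 = concentration required for 50% inhibition of growth.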 Calls of active or inactive are those of the source. Rule as the data show it: active = GI50 up to about 1.1 µM and inactive = higher. A value given as a limit tells only on which side of the number the result lay.

As usually defined, the GI50 is the concentration that inhibits growth by half.

Test systems include SNB-75; UACC-257; SK-MEL-2; HCC 2998; OVCAR-3; OVCAR-5; ACHN; KM12; SR; CAKI-1; HL-60; HCT-15; RXF 393; NCI-H460; LXFL 529; M14; HT-29; EKVX; LOX IMVI.
What all share (assay): DTP human tumour cell line panel, 48 h

Consider `O=C(c1ccccc1)C(c1ccccc1)C1(O)C(=O)Nc2ccc(Br)cc21` (configuration not stated), for which the GI50 with SNB-75 is 40.1 µM (inactive); with UACC-257, 22.3 µM (inactive); in the assay on SK-MEL-2 it was 61.1 µM (inactive); with HCC 2998 it was > 100 µM (inactive); with OVCAR-3, 45.6 µM (inactive); in the assay with OVCAR-5, > 100 µM (inactive). Moreover, the GI50 in the assay with ACHN is > 100 µM (inactive); with KM12 it was 95.3 µM (inactive); with SR, 18.7 µM (inactive); in the assay on CAKI-1, 99.1 µM (inactive); in the assay with HL-60, 16.6 µM (inactive); with HCT-15, 60.1 µM. Moreover, the GI50 in the assay on RXF 393 was > 100 µM (inactive); in the assay with NCI-H460, > 100 µM (inactive); in the assay with LXFL 529, 19.8 µM (inactive); in the assay with M14, 30.5 µM (inactive); with HT-29, 52 µM (inactive); in the assay on EKVX, 68.2 µM (inactive).
Turning to `O=C(OCc1ccccc1)n1cccc1`, the GI50 in the assay on SNB-75 was 31.8 µM (inactive); in the assay with UACC-257, > 100 µM (inactive); in the assay with SK-MEL-2, > 100 µM (inactive); in the assay with HCC 2998, > 100 µM (inactive); in the assay with OVCAR-3, > 100 µM (inactive); with OVCAR-5, > 100 µM (inactive). The GI50 in the assay with ACHN is > 100 µM (inactive); in the assay on KM12 it was > 100 µM (inactive); with SR, 88.3 µM (inactive); with CAKI-1 it was > 100 µM (inactive); in the assay on HL-60 it was 57.4 µM (inactive); in the assay with RXF 393, > 100 µM (inactive). The GI50 in the assay on LOX IMVI was > 100 µM (inactive); in the assay on NCI-H460, > 100 µM (inactive); in the assay with LXFL 529, > 100 µM (inactive); with M14, > 100 µM (inactive); in the assay with HT-29, 65.9 µM (inactive); with EKVX, > 100 µM (inactive).
As for `O=C1N(c2ccc(Cl)cc2)C(=O)C2(SC=NN2Cc2ccccc2)N1c1ccc(Cl)cc1` (configuration not stated), the GI50 in the assay with SNB-75 is 64.7 µM (inactive); with UACC-257, > 100 µM (inactive); with HCC 2998, > 100 µM (inactive); in the assay with OVCAR-3, 51.1 µM (inactive); with ACHN, > 100 µM (inactive); in the assay with KM12, > 100 µM (inactive). For the same compound, the GI50 is 9.95 µM (inactive) with SR; 7 µM (inactive) in the assay with HL-60; 37.9 µM (inactive) in the assay on RXF 393; > 100 µM (inactive) in the assay with LOX IMVI; > 100 µM (inactive) in the assay with NCI-H460; > 100 µM (inactive) in the assay on LXFL 529. Further, the GI50 with M14, in the assay with HT-29 and in the assay on EKVX was > 100 µM (inactive) throughout.
Take `CC1(Cc2ccccc2)NC(=S)NC1=O` (configuration not stated): the GI50 in the assay on SNB-75, in the assay on UACC-257, in the assay with SK-MEL-2, with HCC 2998, in the assay on OVCAR-5 and in the assay on ACHN was > 100 µM (inactive) throughout. Further, the GI50 in the assay on KM12, in the assay with SR, in the assay on CAKI-1, with HL-60, with RXF 393 and in the assay with LOX IMVI was > 100 µM (inactive) each time. In addition, the GI50 in the assay on NCI-H460, with LXFL 529, with M14, with HT-29 and in the assay on EKVX was > 100 µM (inactive) in each case.
Regarding `C/C(=N\NC(=S)NC(CCC(=O)O)C(=O)O)c1ccccn1` (configuration not stated), the GI50 with SNB-75, in the assay on UACC-257, in the assay with SK-MEL-2, in the assay on HCC 2998, in the assay with OVCAR-3 and in the assay on OVCAR-5 was > 100 µM (inactive) each time. For the same compound, the GI50 is > 100 µM (inactive) in the assay on ACHN; > 100 µM (inactive) in the assay with KM12; > 100 µM (inactive) in the assay on SR; > 100 µM (inactive) in the assay on HL-60; greater than 100 µM with HCT-15; > 100 µM (inactive) with RXF 393. Also, the GI50 in the assay on LOX IMVI, with NCI-H460, in the assay with LXFL 529, with M14, in the assay on HT-29 and with EKVX was > 100 µM (inactive) throughout.
For `COc1cc(/C=C2\NC(=O)C3Cc4c(OC)c(C)c(OC)c(OC)c4C2N3C)c(OC)c(C)c1OC` (configuration not stated), the GI50 in the assay with SNB-75, in the assay with UACC-257, in the assay on HCC 2998, in the assay with OVCAR-3, in the assay with OVCAR-5 and with ACHN was > 100 µM (inactive) each time. The GI50 in the assay on KM12 was > 100 µM (inactive); in the assay with SR it was > 100 µM (inactive); in the assay on CAKI-1 it was > 100 µM (inactive); with HL-60, > 100 µM (inactive); in the assay on RXF 393 it was 85.3 µM (inactive); in the assay on LOX IMVI, > 100 µM (inactive). Further, the GI50 in the assay with LXFL 529, with M14, in the assay with HT-29 and in the assay on EKVX was > 100 µM (inactive) in each case.
Regarding `CSc1nc2c(nc(N)n2C2OC(CO)C(O)C(O)C2O)c(=O)[nH]1` (configuration not stated), the GI50 in the assay on SNB-75, with UACC-257, in the assay with HCC 2998, in the assay with OVCAR-3, in the assay on ACHN and in the assay with KM12 was > 100 µM (inactive) in each case. Moreover, the GI50 in the assay on SR, in the assay on CAKI-1, in the assay with HL-60, with RXF 393, in the assay with LOX IMVI and in the assay on NCI-H460 was > 100 µM (inactive) in each case. Moreover, the GI50 in the assay on LXFL 529, with M14, in the assay on HT-29 and with EKVX was > 100 µM (inactive) throughout.
On to `CC1=C2C(=CC(C)(C)C2O)C(=O)C(C)(O)C12CC2` (configuration not stated), for which the GI50 with SNB-75 is 0.0123 µM (active); in the assay on UACC-257, 0.014 µM (active); in the assay with SK-MEL-2, 0.0121 µM (active); in the assay on HCC 2998, 0.00541 µM (active); in the assay on OVCAR-3 it was 0.0112 µM (active); in the assay on OVCAR-5, 0.0128 µM (active). In addition, the GI50 is 0.00479 µM (active) in the assay with ACHN; 0.0158 µM (active) in the assay on KM12; 0.00249 µM (active) in the assay with SR; 0.00552 µM (active) in the assay with CAKI-1; 0.00345 µM (active) with HL-60; 0.00393 µM in the assay on HCT-15. Further, the GI50 is 0.00752 µM (active) in the assay with RXF 393; 0.00478 µM (active) with LOX IMVI; 0.0018 µM (active) in the assay on NCI-H460; 0.0198 µM (active) in the assay on LXFL 529; 0.0158 µM (active) in the assay with M14; 0.0028 µM (active) in the assay with HT-29. Further, the GI50 in the assay on EKVX was 0.0356 µM (active).
